Laboratory results taken from patent US9629822B2, “Flavonoid based antiviral targets” (UNIVERSITY OF CENTRAL FLORIDA RESEARCH FOUNDATION, INC., priority 2012, dated 2017).
Like-named read-outs stand apart in the source and are kept apart here.

Legend:
[1] = system: mock transfected 293T HEK cells; assay: PathDetect Elk1 luminescence in mock transfected (empty pcDNA3 vector) 293T HEK cells, off-target effect; format: cell-based, human; conditions: 10 μM vs 1% DMSO control, Equation 1; for activation at 10 µM: Homo sapiens, read-out: Effect(%) on mock cells with each drug at 10 μM
Experimental: As a control, the empty pcDNA3 plasmid vector and the components of PathDetect system were also used for mock transfection of 293T HEK cells. Controls containing 1% DMSO were run in parallel. The relative luminescence results found with mock transfected 293T HEK cells treated with 10 μM drug and the untreated 1% DMSO control were compared via the following Equation 1. % Effect on mock cells=(100%×(mock cell luminescence/DMSO control luminescence))−100% Equation (1)
This equation was derived in order to assess the net effect each compound had on non-US28 containing HEK cells transfected via the same protocol. These control experiments were critical as they provided a method to address off target effects such as compound toxicity, which could give rise to false positives in the PathDetect assay.
Compounds, which had no off-target effects, gave nearly identical luminescence values in both the mock cells and the 1% DMSO control (i.e., a mock cell luminescence/DMSO control luminescence ratio of 1) and a net effect of 0% via Equation 1 (e.g., 9j: 0% in Table 1). In contrast, compounds that were stimulatory to the treated HEK cells gave higher mock cell luminescence than the DMSO control, a ratio >1, and a net positive value in Equation 1 for the % effect on mock cells (e.g., 8f: 290%). On the other hand, compounds that were intrinsically toxic gave lower luminescence in the treated mock cells than the DMSO control, a ratio below 1, and a net negative value for the % effect on mock cells (e.g., 8d: ˜42%).
(§1) The efficacy of each compound on the US28 receptor was investigated in luciferase based reporter gene assay PathDetect trans Elk1 (Agilent, Stratagene)^23 as described previously.^13 Briefly, the human embryonic kidney (HEK) 293T cells were transiently-transfected with 0.1 μg Elk1, 5 μg Luc, and 5 μg of US28 vector or empty pcDNA3 vector (mock cells). Five hours after transfection, the cells were washed with DMEM containing 1% FBS, harvested, seeded in a white half-area 96-well plate (20,000 cells/well) and incubated with the indicated concentrations of test compounds. The incubation buffer consisted of DMEM, 1% FBS, 2 mM L-glutamine, 1% penicillin-streptomycin and 1% DMSO. The cells were incubated at 37° C. in the humid atmosphere with 5% CO2 for an additional 20-24 hours. The luciferase substrate BrightGlo (Promega) was used according to the manufacturer's instruction. The luminescence intensity was acquired using microplate reader Victor3V (Perkin-Elmer). The basal luminescence of mock transfected cells was approximately 500 RLU and the basal luminescence of US28-transfected cells was 4-5-fold higher (2000-2500 RLU). As the inhibitors gave differential responses in terms of their ability to reduce US 28 mediated signaling, their relative EC50 values were determined by dosing the US-28 transfected HEK cells with increasing concentrations of each compound. In this case, the EC50 value is the concentration of the compound needed to provoke a response halfway between the compound's maximal response (change in luminescence) and the no-compound control in the same US-28 transfected cell line. A plot of relative luminescence versus log of the compound concentration provided a dose-response curve from which the % efficacy was derived via non-linear regression methods using the algorithms in PRISM 5.0 (GraphPad Software, San Diego, Calif.).

[2] = target: T1, US28 receptor (Human cytomegalovirus, UniProt P69332); assay: PathDetect trans Elk1 luciferase reporter gene assay in US28-transfected 293T HEK cells; format: cell-based, Human Cytomegalovirus (HCMV); conditions: for EC50: 293T HEK cells transiently expressing US28, Elk1 reporter; for type of activity on the US28 receptor (agonist / inverse agonist / none), in words: Elk1 reporter, US28-transfected HEK cells; for Efficacy(%): maximum intrinsic activity from dose-response curve; for Efficacy(%) / Emax: negative = inverse agonism; for Emax: read-out: Efficacy(%), maximum intrinsic activity from dose-response curve
T1 construct: expressed in transfected cells; host or cells: HEK 293T cells, transiently transfected
From the text: Having generated a homologous series of chalcones and flavones, their ability to interact with the US28 receptor in human embryonic kidney (HEK) cells was investigated using an Elk-1 gene reporter assay (FIG. 2). HEK cells were transfected with either an empty vector (i.e., mock cells) or with a vector carrying US 28. These matched HEK cells provided a means to evaluate off-target effects as well as innate drug toxicity. As many of the flavonoid drugs were not water-soluble, all drug stock solutions were made in 100% dimethylsulfoxide (DMSO). The final DMSO concentration for each cell-based experiment, however, was 1% DMSO. To account for the presence of DMSO, 1% DMSO controls were run in parallel. […] values of the homologous series were also determined in Chinese hamster ovary (CHO) cells in order to assess the relative toxicities of each member of the series in a different cell line (see Table 1).
Interaction with the US28 receptor was measured by a decrease in luminescence using a firefly (Photinus pyralis) luciferase-based PathDetect Elk1 gene reporter assay (FIG. 2).^23,24 This assay assessed the modulation of US28-mediated activation of mitogen-activated protein kinase (MAPK) signaling pathways (results are shown in Table 1). […] Such compounds which reduce MAPK signaling will have direct utility in the treatment of proliferative disorders including but not limited cancer.
After transfection the US28 is expressed and activates MAPK. The MAPK phosphorylates the activator domain of the GAL4dbd/Elk1 fusion protein, and causes its dimerization. The dimer then binds to the GAL4 UAS region of the reporter gene and allows for luciferase transcription. The luciferase mRNA is then translated and the luciferase protein is detected via luminescence by the use of the Bright-Glo reagent.
as §1

[3] = system: CHO cells; assay: CHO cell toxicity, MTS assay, 48 h; format: cell-based, Chinese hamster; conditions: Cricetulus griseus, CHO, 37° C., MTS reagent, read-out: CHO 48 h IC50 value
Experimental: In each case, the chalcone system 8 was more toxic than the corresponding ring-closed system, 9.
The CHO assay was conducted to assess the general toxicity of each flavonoid drug. Briefly, cell growth was assayed in sterile 96-well microtiter plates (Costar 3599, Corning, N.Y., USA) in the presence of each drug. Experiments were conducted in triplicate. CHO cells were plated at 10,000 cells/mL. Drug solutions were prepared in 100% DMSO and dosed so that the final DMSO concentration was <1%. For example, 1 μL of drug solution was added to the CHO cells plated in each well in 100 μL of media. Drug additions occurred after an initial overnight incubation of CHO cells in each well. After drug was added, the cells were incubated in 5% CO2 for 48 h at 37° C. The MTS reagent (Promega Cell Titer 96 Aqueous non-radioactive cell proliferation reagent) was added (20 μL) and the CHO cells were incubated for an additional 4h and then absorbance at 490 nm was measured on a BioTek Synergy MX plate reader. […] IC50 values were determined from the corresponding plot of relative absorbance at 490 nm vs drug concentration.

[4] = TZMbI assay for cell safety (cell viability and growth, CytoTox Glo); conditions: human, TZMbI cells, read-out: % decrease in viability compared to 0.1% DMSO vehicle based on viable cell luminescence
Experimental: Assays were performed below in accordance with the procedures set forth in The Journal of Immunology, 2006, 176, pp. 6900-905; AIDS Research and Human Retroviruses, 2004, 20:11, pp. 1157-1665.^32,33 TZMbI assays for cell safety were performed to identify potential anti-viral compounds. TZMbI assays for cell safety were performed to identify potential anti-viral compounds per the methods.

[5] = system: HIV-1 BaL; assay: Anti-HIV assay (luciferase, HIV-1 BaL infection); format: cell-based
Experimental: Assays were performed below in accordance with the procedures set forth in The Journal of Immunology, 2006, 176, pp. 6900-905; AIDS Research and Human Retroviruses, 2004, 20:11, pp. 1157-1665.^32,33 Cells were treated with 2 ng/mL p24 of HIV-1 BaL administered; MOI approx 0.02 (see refs 32, 33). Cells were treated with 2 ng/mL p24 of HIV-1 BaL administered; MOI approx 0.02 (see refs 32, 33).

[6] = NE = no effect when tested at 10 μM of compound
[7] = EC50 (μM), NE = no effect when tested at 10 μM of compound
[8] = 10 μM, Experiment 1B, 2 ng/mL p24 HIV-1 BaL
[9] = Human immunodeficiency virus 1, BAL, 10 μM, Experiment 1B, 2 ng/mL p24 HIV-1 BaL

T1 sequence (P69332 whole entry): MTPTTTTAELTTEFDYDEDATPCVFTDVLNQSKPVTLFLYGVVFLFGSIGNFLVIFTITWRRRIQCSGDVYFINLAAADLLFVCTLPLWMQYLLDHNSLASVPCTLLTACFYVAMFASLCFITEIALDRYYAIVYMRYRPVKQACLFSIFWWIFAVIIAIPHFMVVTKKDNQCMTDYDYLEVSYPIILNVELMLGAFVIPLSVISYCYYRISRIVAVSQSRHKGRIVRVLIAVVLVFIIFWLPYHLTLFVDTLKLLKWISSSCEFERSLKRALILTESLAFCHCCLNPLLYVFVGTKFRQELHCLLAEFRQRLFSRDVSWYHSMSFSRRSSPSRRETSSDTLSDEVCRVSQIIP

Row | Compound | activation at 10 µM [1] [%] | EC50 [2, 6] [µM] | EC50 [2, 7] [µM] | type of activity on the US28 receptor (agonist / inverse agonist / none), in words [2] | melting point [°C] | IC50 [3] [µM] | cytotoxicity at 10 μM ([4]; Experiment 1A) [%] | RLU (relative luciferase units) [5, 8] [RLU] | inhibition at 10 µM [5, 9] [%] | Efficacy(%) [2] [%] | Emax [2] [%] | further results
1 | COc1ccc(Cl)cc1C1CC(=O)c2ccccc2O1 (centres unmarked) [Compound 13h, 2-(5-Chloro-2-methoxyphenyl)chroman-4-one] | -14 | > 10 | > 10 | did not have any significant effect | 51 to 60 | – | – | – | – | – | – | –
2 | CCOc1ccc(Cl)cc1/C=C/C(=O)c1ccccc1O [Compound 8i, (E)-3-(5-chloro-2-ethoxyphenyl)-1-(2-hydroxyphenyl)prop-2-en-1-one] | 33 | – | 6.4 | – | 61 to 65 | 6.8 ± 0.9 | 87.1 | 130.4 | 86.2 | ~76 | ~76 | Effect(%) on mock cells with each drug at 10 μM [1]: 33%
3 | COc1ccc(C)cc1-c1oc2ccccc2c(=O)c1O [Compound 9j, 3-hydroxy-2-(2-methoxy-5-methylphenyl)-4H-chromen-4-one] | 0 | – | 1.78 | inhibited US28 receptor constitutive activity | 158 to 164 | 54.6 ± 4.2 | 4.8 | 814.0 | 13 | – | -38 | Effect(%) on mock cells with each drug at 10 μM [1]: 0%
4 | COc1cc(OC)c(-c2oc3ccccc3c(=O)c2O)cc1Br [Compound 9e, 2-(5-Bromo-2,4-dimethoxyphenyl)-3-hydroxy-4H-chromen-4-one] | -17 | > 10 | – | – | 196 to 201 | 18.3 ± 2.5 | -11.9 | 693.9 | 25.9 | – | – | –
5 | COc1ccc(Br)cc1-c1cc(=O)c2ccccc2o1 [Compound 11d, 2-(5-Bromo-2-methoxyphenyl)-4H-chromen-4-one] | – | – | 8.1 | inverse agonism | 161 to 164 | > 100 | 23.6 | 576.3 | 38.4 | −55 | -55 | –
6 | COc1cc(Br)cc(-c2oc3ccccc3c(=O)c2O)c1OC [Compound 9d, 2-(5-Bromo-2,3-dimethoxyphenyl)-3-hydroxy-4H-chromen-4-one] | – | > 10 | – | – | 153 to 158 | > 100 | -7.3 | 452.5 | 51.7 | – | – | cytotoxicity at 5 μM ([4]; 5 μM, Experiment 2A): -7.87%; cytotoxicity at 10 μM ([4]; Experiment 2A): -18.6%; cytotoxicity at 20 μM ([4]; 20 μM, Experiment 2A): -23.7%; cytotoxicity at 40 μM ([4]; 40 μM, Experiment 2A): -33.1%; cytotoxicity at 80 μM ([4]; 80 μM, Experiment 2A): -8.38%; RLU (relative luciferase units) ([5]; 5 μM, Experiment 2B): 10.04 RLU; RLU (relative luciferase units) ([5]; 10 μM, Experiment 2B): 25.14 RLU; RLU (relative luciferase units) ([5]; 20 μM, Experiment 2B): 41.25 RLU; RLU (relative luciferase units) ([5]; 40 μM, Experiment 2B): 68.82 RLU; RLU (relative luciferase units) ([5]; 80 μM, Experiment 2B): 59.85 RLU; inhibition at 5 µM ([5]; Human immunodeficiency virus 1, BAL, 5 μM, Experiment 2B): -7.87%; inhibition at 10 µM ([5]; Human immunodeficiency virus 1, BAL, 10 μM, Experiment 2B): -18.6%; inhibition at 20 µM ([5]; Human immunodeficiency virus 1, BAL, 20 μM, Experiment 2B): -23.7%; inhibition at 40 µM ([5]; Human immunodeficiency virus 1, BAL, 40 μM, Experiment 2B): -33.1%; inhibition at 80 µM ([5]; Human immunodeficiency virus 1, BAL, 80 μM, Experiment 2B): -8.38%
7 | COc1cc(Br)cc(/C=C/C(=O)c2ccccc2O)c1OC [Compound 8d, (E)-3-(5-bromo-2,3-dimethoxyphenyl)-1-(2-hydroxyphenyl)prop-2-en-1-one] | – | – | 6.7 | – | 122 to 124 | 7.2 ± 0.4 | 72.9 | 134.6 | 85.8 | ~52 | ~52 | EC50 ([2]; pEC50 ± SEM): 6.61 µM
